{
  "source": "patent US20160024092A1",
  "about": "“INTRAVENOUS FORMULATIONS OF NEUROKININ-1 ANTAGONISTS” (OPKO Health, Inc., priority 2009, published 2016)",
  "key": {"[1]": {"assay": "Equilibrium solubility of Compound 1 (HPLC)", "type": "physicochemical", "settings": "for solubility thermodynamic: thermodynamic from solid, pH 7.0"}, "pKa of Compound 1": {"assay": "pKa of Compound 1", "type": "physicochemical"}, "red blood cells": {"test_system": "red blood cells", "assay": "Hemolytic testing in rats after intravenous administration (hemoglobin in urine, Hemastix reagent strips)", "type": "in vivo, rat", "set-up": "key: Hemastix scale: 0=negative, 1=non-hemolyzed trace … 6=large+++", "settings": "1-2 min slow-hand bolus, 10 mg/mL drug in 22% Solutol HS15, pH 7.0", "source_text": "The term “hemolysis” as used herein means destruction of red blood cells which leads to the release of hemoglobin from within the red blood cells into the blood plasma. Hemolysis can be measured by methods well known in the art, e.g., Hemastix® reagent strips (Bayer Corp., Elkhart, Ind.) which detect blood in urine. The\nHemastix® reagent strips turn from yellow to dark green depending upon the amount of hemoglobin found in the urine. The Hemastix® scale is as follows: 0=negative, 1=non-hemolyzed trace, 3=hemolyzed trace, 4=small+, 5=moderate++, and 6=large+++.\nUrine samples from the rats were assessed for hemolysis using Hemastix® reagent strips (No. 2190, Bayer Corp., Elkhart Ind.). […] The Hemastix® reagent strips detect the peroxide-like activity of hemoglobin. The strips turn from yellow to dark green depending upon the amount of hemoglobin found in the urine. The Hemastix® scale is as follows: 0=negative, 1=non-hemolyzed trace, 3=hemolyzed trace, 4=small+, 5=moderate++, and 6=large+++.\nThe methodology for this study was to administer (into the tail vein of a rat) each formulation over 15 minutes by intravenous infusion using an infusion pump or to administer the formulation within two minutes by bolus route using a syringe. Urine was tested for the presence of free hemoglobin using the pooled urine collection method at the six-hour interval. For the six hour pooled urine collection, rats were dosed and placed in a metabolism cage. Six hour post dose, the rats were euthanized by carbon dioxide over-inhalation, and the urine sample was collected. A minimum of five subjects were tested for each formulation and the urine samples were analyzed for hemolysis using Hemastix® reagent strips as indicated in Comparative Example 2.\n[…] If the rat voided any urine in the cage, the urine was analyzed using Hemastix® reagent strips to determine the presence of hemoglobinuria.\nThe methodology for this example was to administer each formulation over 15 minutes by i.v. infusion using an infusion pump or to administer the formulations within 2 minutes by bolus injection using a syringe and delivering the formulation into the tail vein of a rat. Urine was tested by dipstick for the presence of free hemoglobin using the pooled urine collection method at the 6-hour interval."}, "[2]": {"settings": "in vivo"}},
  "note": "Like-named read-outs stand apart in the source and are kept apart here.",
  "data": [
    {"molecule": "C[C@@H](OC[C@@]1(c2ccccc2)CC[C@]2(CCC(=O)N2)CN1)c1cc(C(F)(F)F)cc(C(F)(F)F)c1", "note": "[Compound 1, (5S,8S)-8-[{(1R)-1-(3,5-Bis-(trifluoromethyl)phenyl)-ethoxy}-methyl]-8-phenyl-1,7-diazaspiro[4.5]decan-2-one]", "values": [
      {"measurement": "solubility thermodynamic", "setting": "[1]; 16% Captisol (sulfobutyl ether beta-cyclodextrin), aqueous with cosolvent or surfactant or cyclodextrin, 16% Captisol", "result": "< 0.006", "unit": "mg/mL"},
      {"measurement": "solubility", "setting": "[1]; 22% Solutol, aqueous with cosolvent or surfactant or cyclodextrin", "result": 50, "unit": "mg/mL"},
      {"measurement": "solubility thermodynamic", "setting": "[1]; aqueous with cosolvent or surfactant or cyclodextrin, 20% Solutol", "result": "~50", "unit": "mg/mL"},
      {"measurement": "solubility", "setting": "[1]; pH 7.4, aqueous buffer, read-out: solubility at the physiological pH of 7.4", "result": "< 0.004", "unit": "mg/mL"},
      {"measurement": "pKa", "setting": "pKa of Compound 1", "result": 6.9},
      {"measurement": "Hemolysis (Female rats)", "setting": "red blood cells; 10 mg/kg, 15 min", "result": 1},
      {"measurement": "Hemolysis (Male rats)", "setting": "red blood cells; 10 mg/kg, 15 min", "result": 3},
      {"measurement": "Hemolysis (Female rats)", "setting": "red blood cells; 10 mg/kg, 30 min", "result": 1},
      {"measurement": "Hemolysis (Male rats)", "setting": "red blood cells; 10 mg/kg, 30 min", "result": 0},
      {"measurement": "Hemolysis (Female rats)", "setting": "red blood cells; 10 mg/kg, 60 min", "result": 0},
      {"measurement": "Hemolysis (Male rats)", "setting": "red blood cells; 10 mg/kg, 60 min", "result": 0},
      {"measurement": "Hemolysis (Female rats)", "setting": "red blood cells; 20 mg/kg, 15 min", "result": 3},
      {"measurement": "Hemolysis (Male rats)", "setting": "red blood cells; 20 mg/kg, 15 min", "result": 3},
      {"measurement": "Hemolysis (Female rats)", "setting": "red blood cells; 20 mg/kg, 30 min", "result": 0},
      {"measurement": "Hemolysis (Male rats)", "setting": "red blood cells; 20 mg/kg, 30 min", "result": 3},
      {"measurement": "Hemolysis (Female rats)", "setting": "red blood cells; 20 mg/kg, 60 min", "result": 0},
      {"measurement": "Hemolysis (Male rats)", "setting": "red blood cells; 20 mg/kg, 60 min", "result": 0},
      {"measurement": "Hemolysis (Female rats)", "setting": "red blood cells; 30 mg/kg, 15 min", "result": 3},
      {"measurement": "Hemolysis (Male rats)", "setting": "red blood cells; 30 mg/kg, 15 min", "result": 3},
      {"measurement": "Hemolysis (Female rats)", "setting": "red blood cells; 30 mg/kg, 30 min", "result": 2},
      {"measurement": "Hemolysis (Male rats)", "setting": "red blood cells; 30 mg/kg, 30 min", "result": 0},
      {"measurement": "Hemolysis (Female rats)", "setting": "red blood cells; 30 mg/kg, 60 min", "result": 0},
      {"measurement": "Hemolysis (Male rats)", "setting": "red blood cells; 30 mg/kg, 60 min", "result": 0},
      {"measurement": "time at which half concentration is achieved", "setting": "[2]", "result": "around 180 hrs"}
    ]}
  ]
}
